Measured values: ChEMBL document CHEMBL3600338, “NMR-based conformational analysis of 2',6-disubstituted uridines and antiviral evaluation of new phosphoramidate prodrugs” (Bioorg Med Chem, 2015)
Active and inactive are the calls of the source.

Assays:
rhinovirus B14 = assay: Antiviral activity against Rhinovirus 14 infected in human HeLa cells assessed as reduction of viral replication; type: functional, organism-based
Vero [1] = assay: Antiviral activity against Coxsackievirus B3 Nancy infected in African green monkey Vero cells assessed as reduction of viral replication; type: functional, cell-based; settings: Coxsackievirus B3 (strain Nancy)
Hepatitis C virus = assay: Antiviral activity against Hepatitis C virus genotype 1b Con1 in HuH 5-2 replicon system assessed as reduction of viral replication; type: functional; settings: Hepacivirus hominis
Chikungunya virus = assay: Antiviral activity against Chikungunya virus assessed as reduction of viral replication; type: functional
Poliovirus 1 = assay: Antiviral activity against Poliovirus 1 Sabin infected in African green monkey BGM cells assessed as reduction of viral replication; type: functional, organism-based
Vero [2] = assay: Antiviral activity against Coxsackievirus B4 E2 infected in African green monkey Vero cells assessed as reduction of viral replication; type: functional, cell-based; settings: Coxsackievirus B4 (strain E2)
Enterovirus A71 = assay: Antiviral activity against Enterovirus 71 infected in human HeLa cells assessed as reduction of viral replication; type: functional, organism-based

Measured: Activity

CC(C)OC(=O)[C@H](C)NP(=O)(OC[C@H]1OC(n2c(C#N)cc(=O)[nH]c2=O)[C@](C)(O)[C@@H]1O)Oc1ccccc1 (some centres not stated)
inactive: all assays above

Cc1cc(=O)[nH]c(=O)n1C1O[C@H](COP(=O)(N[C@@H](C)C(=O)OC(C)C)Oc2ccccc2)[C@@H](O)[C@@]1(C)O (some centres not stated)
inactive: all assays above

Cc1cc(=O)[nH]c(=O)n1C1O[C@H](COP(=O)(N[C@@H](C)C(=O)OC(C)C)Oc2ccccc2)[C@@H](O)[C@H]1O (some centres not stated)
inactive: all assays above

CC(C)OC(=O)[C@H](C)NP(=O)(OC[C@H]1OC(n2c(C#N)cc(=O)[nH]c2=O)[C@H](O)[C@@H]1O)Oc1ccccc1 (some centres not stated)
inactive: all assays above

CC(C)OC(=O)[C@H](C)NP(=O)(OC[C@H]1OC(n2c(I)cc(=O)[nH]c2=O)[C@H](O)[C@@H]1O)Oc1ccccc1 (some centres not stated)
inactive: all assays above

CC(C)OC(=O)[C@H](C)NP(=O)(OC[C@H]1OC(n2c(N=[N+]=[N-])cc(=O)[nH]c2=O)[C@H](O)[C@@H]1O)Oc1ccccc1 (some centres not stated)
inactive: all assays above
